Reference: patent US9463216B2 (priority 2012, dated 2016)

Biological target: PA (Bacillus anthracis, UniProt P13423)
Format: binding, B. anthracis

PA, sequence (P13423 30-764 limits assumed): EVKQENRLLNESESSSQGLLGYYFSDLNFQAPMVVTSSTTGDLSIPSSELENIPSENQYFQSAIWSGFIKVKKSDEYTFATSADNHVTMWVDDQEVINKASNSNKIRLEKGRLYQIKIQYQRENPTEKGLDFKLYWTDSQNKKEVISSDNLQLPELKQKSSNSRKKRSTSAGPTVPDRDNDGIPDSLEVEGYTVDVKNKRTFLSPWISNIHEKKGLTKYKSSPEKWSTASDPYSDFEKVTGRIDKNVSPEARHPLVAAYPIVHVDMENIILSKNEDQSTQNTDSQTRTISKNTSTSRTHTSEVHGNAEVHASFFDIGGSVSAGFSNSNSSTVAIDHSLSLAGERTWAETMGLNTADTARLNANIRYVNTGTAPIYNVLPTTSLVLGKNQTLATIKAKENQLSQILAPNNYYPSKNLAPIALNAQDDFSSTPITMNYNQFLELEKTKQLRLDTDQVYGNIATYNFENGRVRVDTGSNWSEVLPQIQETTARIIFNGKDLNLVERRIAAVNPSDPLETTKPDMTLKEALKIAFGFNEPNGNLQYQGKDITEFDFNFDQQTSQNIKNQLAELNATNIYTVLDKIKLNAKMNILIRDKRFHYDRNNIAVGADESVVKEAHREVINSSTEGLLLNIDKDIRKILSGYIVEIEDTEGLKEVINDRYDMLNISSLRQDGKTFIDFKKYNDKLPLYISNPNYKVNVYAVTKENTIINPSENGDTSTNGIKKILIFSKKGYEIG

## poly-γ-D-glutamic acid [Compound 3]
  form complexes with PA: can form complexes with PA
